The values below come from patent US20230085307A1, “PYRIDAZINONE COMPOUND AND HERBICIDE” (NISSAN CHEMICAL CORPORATION, priority 2019, published 2023).

The test system of assay [1] is Italian ryegrass. The assay can be described thus: Test Example 5: herbicidal effect by foliage application, plastic box (Table 20, symbol K). In kind it is in vivo, Italian ryegrass (Lolium multiflorum). The note with it: foliage application, 320 g/ha, three weeks after application. In short, it runs like this: (§1)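 Plants were sown into sterilized diluvial soil under about 1.5 cm cover and kept in a greenhouse at 25° C. to 30° C. Fourteen days on, foliage received an even spray of the diluted emulsion. Herbicidal or crop effect was judged three weeks afterwards.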

Assay [2] concerns rice flat sedge. As to the kind of experiment: Test Example 3: herbicidal effect by foliage application, Wagner pot (Table 18, symbol E). In kind it is in vivo, rice flat sedge (Cyperus iria). The note with it: amount of applied herbicide 320 g/ha. The essentials:
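Plants were sown in alluvial soil held under 0.1–0.5 cm standing water and grown 14 days in a greenhouse at 25–30 °C. An emulsifiable formulation, water-diluted to the set dose, was then sprayed onto the foliage, and effects were scored three weeks later using previously defined criteria.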

Assay [3] has as its system wild oat. As to the kind of experiment: Test Example 4: herbicidal effect by soil treatment (Table 19, symbol I). The note with it: amount of applied herbicide 320 g/ha. In kind it is in vivo, wild oat (Avena fatua). In short, it runs like this:
(§2)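 Pre-emergence style soil spray: seeds under ~1.5 cm sterilized diluvial soil received a uniform coat of emulsion diluted to the predetermined herbicide amount. Greenhouse 25–30° C; readout at week three on previously defined criteria.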

Assay [4] has as its system chickweed. The assay can be described thus: Test Example 4: herbicidal effect by soil treatment (Table 19, symbol P). In kind it is in vivo, common chickweed (Stellaria media). The note with it: amount of applied herbicide 320 g/ha. In short, it runs like this:
as §2

Assay [5] concerns southern crabgrass. As to the kind of experiment: Test Example 4: herbicidal effect by soil treatment (Table 19, symbol F). In kind it is in vivo, southern crabgrass (Digitaria ciliaris). The note with it: amount of applied herbicide 320 g/ha. The essentials: as §2
The subject of assay [6] is lambsquarters. As to the kind of experiment: Test Example 4: herbicidal effect by soil treatment (Table 19, symbol O). In kind it is in vivo, lambsquarters (Chenopodium album). The note with it: amount of applied herbicide 320 g/ha. In short, it runs like this:
as §2

Assay [7] has as its system blackgrass. As to the kind of experiment: Test Example 5: herbicidal effect by foliage application, plastic box (Table 20, symbol J). The note with it: foliage application, 320 g/ha, three weeks after application. In kind it is in vivo, blackgrass (Alopecurus myosuroides). The essentials: as §1
Assay [8] concerns Italian ryegrass. The assay can be described thus: Test Example 4: herbicidal effect by soil treatment (Table 19, symbol K). In kind it is in vivo, Italian ryegrass (Lolium multiflorum). The note with it: amount of applied herbicide 320 g/ha. The essentials:
as §2

The subject of assay [9] is southern crabgrass. As to the kind of experiment: Test Example 5: herbicidal effect by foliage application, plastic box (Table 20, symbol F). In kind it is in vivo, southern crabgrass (Digitaria ciliaris). The note with it: foliage application, 320 g/ha, three weeks after application. The essentials: as §1
Assay [10] concerns oval-leafed pondweed. The assay can be described thus: Test Example 1: herbicidal activity, application before weed generation under submerged conditions (Table 16, symbol C). In kind it is in vivo, oval-leafed pondweed (Monochoria vaginalis). The note with it: amount of applied herbicide 320 g/ha. The essentials: (§3)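 Emulsion formulation, water-diluted to set dose, was put onto the flooded surface (4 cm depth, alluvial soil) the same day weeds were sown and 2.5-leaf rice transplanted. After 3 weeks at 25-30 °C under glass, each species was rated 0 (≤5% kill) to 5 (≥90% kill).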

Assay [11] has as its system blackgrass. As to the kind of experiment: Test Example 4: herbicidal effect by soil treatment (Table 19, symbol J). In kind it is in vivo, blackgrass (Alopecurus myosuroides). The note with it: amount of applied herbicide 320 g/ha. The essentials:
as §2

In assay [12] the test system is persian speedwell. As to the kind of experiment: Test Example 4: herbicidal effect by soil treatment (Table 19, symbol R). In kind it is in vivo, Persian speedwell (Veronica persica). The note with it: amount of applied herbicide 320 g/ha. The essentials:
as §2

Assay [13] has as its system Japanese bulrush. As to the kind of experiment: Test Example 2: herbicidal activity, application during weed generation under submerged conditions (Table 17, symbol B). In kind it is in vivo, Japanese bulrush (Schoenoplectus juncoides). The note with it: AAH 320 g/ha; application during weed generation, submerged conditions. The essentials: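 Herbicide emulsion, diluted with water to the chosen amount, is applied onto 4 cm floodwater over alluvial soil where the weeds were co-sown and raised at 25–30° C. Application timing: 1–2 leaves. Assessment: three weeks afterwards.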

Assay [14] deals with barnyard grass. As to the kind of experiment: Test Example 4: herbicidal effect by soil treatment (Table 19, symbol H). In kind it is in vivo, barnyard grass (Echinochloa crus-galli). The note with it: amount of applied herbicide 320 g/ha. In short, it runs like this: as §2
In assay [15] the test system is Japanese bulrush. As to the kind of experiment: Test Example 1: herbicidal activity, application before weed generation under submerged conditions (Table 16, symbol B). In kind it is in vivo, Japanese bulrush (Schoenoplectus juncoides). The note with it: amount of applied herbicide 320 g/ha. The essentials:
as §3

Assay [16] deals with persian speedwell. As to the kind of experiment: Test Example 5: herbicidal effect by foliage application, plastic box (Table 20, symbol R). The note with it: foliage application, 320 g/ha, three weeks after application. In kind it is in vivo, Persian speedwell (Veronica persica). In short, it runs like this: as §1

Each structure is given as a SMILES string.

On to `CCOc1ccccc1-c1sc2c(Cl)c(OCC)ccc2c1-c1c(O)c(C)nn(C)c1=O` [7-004], for which, in assay [1], the “herbicidal effect on Italian ryegrass (K)” value (“herbicidal effect … (K)” below) was 4 (Herbicidal rate of 70% or more and less than 90%). Moreover, the “Herbicidal effect on E (rice flat sedge), foliage application” value (“Herbicidal effect on E (rice flat sedge)” below) in [2] is reported as 5 (Herbicidal rate of 90% or more (almost completely withered)). In addition, the “I: wild oat, herbicidal effect grade” value in [3] is on record as 0 (Herbicidal rate of 5% or less (almost no effect)). Also, the “P: chickweed, herbicidal effect grade” value in [4] was 4 (Herbicidal rate of 70% or more and less than 90%). Besides, in assay [5], the “F: southern crabgrass, herbicidal effect grade” value (“F: southern crabgrass” below) is 3 (Herbicidal rate of 40% or more and less than 70%). For the same compound, the “O: lambsquarters, herbicidal effect grade” value (“O: lambsquarters” for short) in assay [6] is 4 (Herbicidal rate of 70% or more and less than 90%). The “herbicidal effect on blackgrass (J)” value in [7] is 5 (Herbicidal rate of 90% or more (almost completely withered)). For the same compound, in assay [8], the “K: Italian ryegrass, herbicidal effect grade” value (“K: Italian ryegrass” for short) was 4 (Herbicidal rate of 70% or more and less than 90%). Further, the “herbicidal effect on southern crabgrass (F)” value (“herbicidal effect … (F)” below) in assay [9] is given as 5 (Herbicidal rate of 90% or more (almost completely withered)). Moreover, in assay [10], the “Herbicidal effect, C: oval-leafed pondweed” value (from here on “Herbicidal effect, C”) is given as 0 (Herbicidal rate of 5% or less (almost no effect)). Further, the “J: blackgrass, herbicidal effect grade” value in assay [11] is listed as 0 (Herbicidal rate of 5% or less (almost no effect)). In assay [12], the “R: persian speedwell, herbicidal effect grade” value (from here on “R: persian speedwell”) was 5 (Herbicidal rate of 90% or more (almost completely withered)). Besides, the “herbicidal effect rating, B: Japanese bulrush” value (“herbicidal effect rating, B” for short) in assay [13] was 3 (Herbicidal rate of 40% or more and less than 70%). Further, the “H: barnyard grass, herbicidal effect grade” value (“H: barnyard grass” for short) in [14] was 3 (Herbicidal rate of 40% or more and less than 70%). Besides, the “Herbicidal effect, B: Japanese bulrush” value in [15] is 3 (Herbicidal rate of 40% or more and less than 70%). Moreover, in assay [16], the “herbicidal effect on persian speedwell (R)” value (from here on “herbicidal effect … (R)”) is given as 5 (Herbicidal rate of 90% or more (almost completely withered)).

On to `Cc1nn(C)c(=O)c(-c2c(-c3ccc(OCC(F)(F)F)cc3)oc3ccccc23)c1O` [8-005], for which, in assay [1], the “herbicidal effect … (K)” value was 5 (Herbicidal rate of 90% or more (almost completely withered)). In addition, in assay [2], the “Herbicidal effect on E (rice flat sedge)” value was 4 (Herbicidal rate of 70% or more and less than 90%). Moreover, the “I: wild oat, herbicidal effect grade” value in assay [3] is 0 (Herbicidal rate of 5% or less (almost no effect)). The “P: chickweed, herbicidal effect grade” value in assay [4] was 2 (Herbicidal rate of 20% or more and less than 40%). Further, the “F: southern crabgrass” value in assay [5] is 4 (Herbicidal rate of 70% or more and less than 90%). In addition, the “O: lambsquarters” value in [6] is 4 (Herbicidal rate of 70% or more and less than 90%). In assay [7], the “herbicidal effect on blackgrass (J)” value is 4 (Herbicidal rate of 70% or more and less than 90%). For the same compound, the “K: Italian ryegrass” value in [8] is recorded as 5 (Herbicidal rate of 90% or more (almost completely withered)). Further, in [9], the “herbicidal effect … (F)” value is given as 5 (Herbicidal rate of 90% or more (almost completely withered)). Moreover, the “Herbicidal effect, C” value in assay [10] was 4 (Herbicidal rate of 70% or more and less than 90%). Further, the “J: blackgrass, herbicidal effect grade” value in assay [11] is 3 (Herbicidal rate of 40% or more and less than 70%). Besides, the “R: persian speedwell” value in [12] is 4 (Herbicidal rate of 70% or more and less than 90%). Moreover, the “herbicidal effect rating, B” value in [13] is 3 (Herbicidal rate of 40% or more and less than 70%). In addition, the “H: barnyard grass” value in [14] is listed as 5 (Herbicidal rate of 90% or more (almost completely withered)). In [15], the “Herbicidal effect, B: Japanese bulrush” value is 5 (Herbicidal rate of 90% or more (almost completely withered)). Further, the “herbicidal effect … (R)” value in assay [16] was 5 (Herbicidal rate of 90% or more (almost completely withered)).

For the compound `CSCCOc1ccc(-c2oc3ccccc3c2-c2c(O)c(C)nn(C)c2=O)cc1` [8-008], in [1], the “herbicidal effect … (K)” value was 5 (Herbicidal rate of 90% or more (almost completely withered)). The “Herbicidal effect on E (rice flat sedge)” value in assay [2] is 4 (Herbicidal rate of 70% or more and less than 90%). In addition, in assay [3], the “I: wild oat, herbicidal effect grade” value is listed as 0 (Herbicidal rate of 5% or less (almost no effect)). Besides, the “P: chickweed, herbicidal effect grade” value in assay [4] is reported as 5 (Herbicidal rate of 90% or more (almost completely withered)). Also, the “F: southern crabgrass” value in assay [5] is 3 (Herbicidal rate of 40% or more and less than 70%). In addition, in assay [6], the “O: lambsquarters” value is 4 (Herbicidal rate of 70% or more and less than 90%). Further, in assay [7], the “herbicidal effect on blackgrass (J)” value was 5 (Herbicidal rate of 90% or more (almost completely withered)). Besides, the “K: Italian ryegrass” value in assay [8] was 4 (Herbicidal rate of 70% or more and less than 90%). The “herbicidal effect … (F)” value in assay [9] is 5 (Herbicidal rate of 90% or more (almost completely withered)). In assay [10], the “Herbicidal effect, C” value was 4 (Herbicidal rate of 70% or more and less than 90%). For the same compound, in assay [11], the “J: blackgrass, herbicidal effect grade” value was 0 (Herbicidal rate of 5% or less (almost no effect)). The “R: persian speedwell” value in [12] is 5 (Herbicidal rate of 90% or more (almost completely withered)). Further, the “herbicidal effect rating, B” value in assay [13] is 3 (Herbicidal rate of 40% or more and less than 70%). The “H: barnyard grass” value in [14] is 5 (Herbicidal rate of 90% or more (almost completely withered)). In assay [15], the “Herbicidal effect, B: Japanese bulrush” value is reported as 5 (Herbicidal rate of 90% or more (almost completely withered)). The “herbicidal effect … (R)” value in assay [16] was 5 (Herbicidal rate of 90% or more (almost completely withered)).

For `COc1ccc(-c2oc3ccc(Cl)cc3c2-c2c(O)c(C)nn(C)c2=O)cc1` [9-002], in [1], the “herbicidal effect … (K)” value is 3 (Herbicidal rate of 40% or more and less than 70%). The “Herbicidal effect on E (rice flat sedge)” value in assay [2] was 2 (Herbicidal rate of 20% or more and less than 40%). Besides, in [3], the “I: wild oat, herbicidal effect grade” value was 0 (Herbicidal rate of 5% or less (almost no effect)). In addition, the “P: chickweed, herbicidal effect grade” value in [4] was 4 (Herbicidal rate of 70% or more and less than 90%). The “F: southern crabgrass” value in assay [5] is 2 (Herbicidal rate of 20% or more and less than 40%). The “O: lambsquarters” value in assay [6] is 4 (Herbicidal rate of 70% or more and less than 90%). The “herbicidal effect on blackgrass (J)” value in assay [7] is 0 (Herbicidal rate of 5% or less (almost no effect)). Also, in [8], the “K: Italian ryegrass” value is 3 (Herbicidal rate of 40% or more and less than 70%). In assay [9], the “herbicidal effect … (F)” value is 0 (Herbicidal rate of 5% or less (almost no effect)). In [10], the “Herbicidal effect, C” value is 2 (Herbicidal rate of 20% or more and less than 40%). For the same compound, the “J: blackgrass, herbicidal effect grade” value in [11] is 1 (Herbicidal rate of 5% or more and less than 20%). In addition, in assay [12], the “R: persian speedwell” value is 4 (Herbicidal rate of 70% or more and less than 90%). For the same compound, in [13], the “herbicidal effect rating, B” value is reported as 0 (Herbicidal rate of 5% or less (almost no effect)). For the same compound, in assay [14], the “H: barnyard grass” value is 2 (Herbicidal rate of 20% or more and less than 40%). Also, in assay [15], the “Herbicidal effect, B: Japanese bulrush” value is 3 (Herbicidal rate of 40% or more and less than 70%). Besides, the “herbicidal effect … (R)” value in assay [16] is 5 (Herbicidal rate of 90% or more (almost completely withered)).
